≈ marks a conversion by molar mass, not a printed value.
Molecular target: acetylcholinesterase (acetyl cholinesterase)
Experiment: in vitro AChE inhibition assay
Type: biochemical, Electrophorus electricus

| SMILES | IC50 (μg ml^-1) ± SEM |
| --- | --- |
| O=C1C(=O)N(CCOc2ccccc2)c2ccccc21 [PI1, 1-(2-Phenoxyethyl)indoline-2,3-dione] | 0.52 ± 0.073 µg/mL (≈ 1.95 µM) |
| O=C1C(=O)N(CCOc2ccc(Cl)cc2)c2ccccc21 [PI2, 1-(2-(4-Chlorophenoxy)ethyl)indoline-2,3-dione] | 0.72 ± 0.012 µg/mL (≈ 2.39 µM) |
| O=C1C(=O)N(CCOc2ccc(F)cc2)c2ccccc21 [PI4, 1-(2-(4-Fluorophenoxy)ethyl)indoline-2,3-dione] | 0.68 ± 0.011 µg/mL (≈ 2.38 µM) |
| O=C1C(=O)N(CCOc2ccc(Cl)cc2)c2ccc(Cl)cc21 [PI6, 5-Chloro-1-(2-(4-chlorophenoxy)ethyl)indoline-2,3-dione] | 0.91 ± 0.015 µg/mL (≈ 2.71 µM) |
| O=C1C(=O)N(CCOc2ccccc2)c2ccc(Br)cc21 [PI9, 5-Bromo-1-(2-phenoxyethyl)indoline-2,3-dione] | 0.91 ± 0.083 µg/mL (≈ 2.63 µM) |
| O=C1C(=O)N(CCOc2ccc(Cl)cc2)c2ccc(Br)cc21 [PI10, 5-Bromo-1-(2-(4-chlorophenoxy)ethyl)indoline-2,3-dione] | 0.98 ± 0.055 µg/mL (≈ 2.57 µM) |
| O=C1C(=O)N(CCOc2ccc(Br)cc2)c2ccc(Br)cc21 [PI11, 5-Bromo-1-(2-(4-bromophenoxy)ethyl)indoline-2,3-dione] | 1.14 ± 0.013 µg/mL (≈ 2.68 µM) |
| O=C1C(=O)N(CCOc2ccc(F)cc2)c2ccc(Br)cc21 [PI12, 5-Bromo-1-(2-(4-fluorophenoxy)ethyl)indoline-2,3-dione] | 1.31 ± 0.083 µg/mL (≈ 3.6 µM) |

Reference: PMC8979220 (RSC Advances, 2022)
